Assay results: US9776979B2, “EBI2 modulators” (Sanford-Burnham Medical Research Institute, priority 2013, dated 2017)

Each compound was assayed against EBI2 (Homo sapiens, UniProt P32249) (assay: Cell-based luminescent assay (EBI2 modulation)). Details: cell-based luminescence; 7a,25-OHC final assay concentration 80 nM; 60 minutes incubation; read-out: IC50.
EBI2, sequence (P32249 whole entry): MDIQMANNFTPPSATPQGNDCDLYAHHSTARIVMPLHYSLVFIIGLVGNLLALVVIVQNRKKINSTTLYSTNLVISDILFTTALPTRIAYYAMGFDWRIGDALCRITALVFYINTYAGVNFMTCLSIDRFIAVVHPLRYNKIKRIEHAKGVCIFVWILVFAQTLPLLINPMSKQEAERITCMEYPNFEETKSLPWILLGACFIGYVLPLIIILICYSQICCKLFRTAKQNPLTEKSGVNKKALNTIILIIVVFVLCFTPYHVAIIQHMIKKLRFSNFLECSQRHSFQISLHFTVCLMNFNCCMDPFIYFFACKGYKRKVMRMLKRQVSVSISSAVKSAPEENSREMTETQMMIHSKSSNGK
Experimental: Cell-Based Luminescent Assay
To assess EBI2 modulation, the compounds described herein were assayed in the following cell-based luminescent assay:
1) Plated 600 cells/well in 4 uL of assay media into columns 1-48 of a 1536-well assay plate, using a liquid dispenser.
2) Centrifuged plates at 1000 rpm for 1 minute and covered with lids.
3) Incubated overnight at 37° C., 100% relative humidity, 5% CO2.
1) Centrifuged compound plates containing compounds described herein at 500 rpm for 1 minute.
2) Added compounds into assay plate col 5-48 to final concentration 4-5 uM. Added matching amount of DMSO to positive and negative control wells in columns 1-4.
3) Dispensed 2 ul/well of assay media to columns 1-2 for the positive control wells.
4) Added 2 ul/well of 400 nM 7a,25-OHC (final assay concentration=80 nM) in assay media to columns 3-48 for the negative control and test compound wells.
5) Centrifuged plates at 1000 rpm for 1 minute and re-lid plates.
6) Incubated plates at 37° C., 100% relative humidity, 5% CO2 for 60 minutes.
7) Following 60 minute incubation, delivered 2.5 uL of Detection Reagent solution to each assay plate (Columns 1-48) using a liquid handler.
8) Centrifuged plates at 2000 rpm for 2 minutes and re-lid plates.
9) Incubated plates for 60 minutes at 25 degrees in the dark.
10) Read plates using the Viewlux, Envision or other suitable plate reader using a luminescence detection.
The experimental values were normalized by the difference between values from neutral and stimulator control wells in each plate. Then normalized data was corrected to remove systematic plate patterns due to artifacts such as dispensing tip issues etc.
With `Cc1ccc(C#CC(=O)N2CCN(C(=O)c3ccc(F)cc3)CC2)cc1` [Compound C38, 1-{4-[(4-fluorophenyl)carbonyl]piperazinyl}-3-(4-methylphenyl)prop-2-yn-1-one] the IC50 was less than 100 nM.
For `O=C(/C=C/c1ccc(Br)cc1)N1CCN(Cc2ccc(Cl)c(Cl)c2)CC1` [Compound C39, (2E)-1-{4-[(3,4-dichlorophenyl)methyl]piperazinyl}-3-(4-bromophenyl)prop-2-en-1-one], the IC50 was less than 100 nM.
`O=C(/C=C/c1ccc(Cl)cc1F)N1CCN(C(c2ccccc2)c2ccccc2)CC1` [Compound C40] gave an IC50 of less than 100 nM.
With `Cc1ccc(CN2CCN(C(=O)/C=C/c3ccc(Br)cc3)CC2)cc1` [Compound C41, (2E)-3-(4-bromophenyl)-1-{4-[(4-methylphenyl)methyl]piperazinyl}prop-2-en-1-one] the IC50 was less than 100 nM.
Compound `O=C(/C=C/c1ccccc1)N1CCN(C(c2ccccc2)c2ccccc2)CC1` [Compound C42, (2E)-1-[4-(diphenylmethyl)piperazinyl]-3-phenylprop-2-en-1-one] has an IC50 of less than 100 nM.
`O=C(/C=C/c1ccc(Br)cc1)N1CCN(C(=O)c2ccc(C(F)(F)F)cc2)CC1` [Compound C44, (2E)-3-(4-bromophenyl)-1-(4-{[4-(trifluoromethyl)phenyl]carbonyl}piperazinyl)prop-2-en-1-one] gave an IC50 of less than 100 nM.
Work on `O=C(c1cc2ccc(Cl)cc2s1)N1CCN(C(c2ccccc2)c2ccccc2)CC1` [Compound C45, 4-(diphenylmethyl)piperazinyl 6-chlorobenzo[b]thiophen-2-yl ketone] yielded an IC50 of less than 100 nM.
Work on `Cc1ccc2[nH]c(C(=O)N3CCN(S(=O)(=O)/C=C/c4ccccc4)CC3)cc2c1` [Compound C48, 4-[((1E)-2-phenylvinyl)sulfonyl]piperazinyl 5-methylindol-2-yl ketone] yielded an IC50 of less than 100 nM.
In the case of `CCCCN1CCN(C(=O)/C=C/c2ccc(Br)cc2)CC1` [Compound C49, (2E)-3-(4-bromophenyl)-1-(4-butylpiperazinyl)prop-2-en-1-one], the IC50 is reported as less than 100 nM.
`CC(C)CN1CCN(C(=O)/C=C/c2ccc(Br)cc2)CC1` [Compound C52, (2E)-3-(4-bromophenyl)-1-[4-(methylpropyl)piperazinyl]prop-2-en-1-one] showed an IC50 of less than 100 nM.
`Cc1ccc(C#CC(=O)N2CCN(C(=O)c3ccc(C(F)(F)F)cc3)CC2)cc1` [Compound C53, 3-(4-methylphenyl)-1-(4-{[4-(trifluoromethyl)phenyl]carbonyl}piperazinyl)prop-2-yn-1-one] gave an IC50 of less than 100 nM.
In the case of `O=C(c1cc2cc(Cl)ccc2[nH]1)N1CCN(C(c2ccccc2)c2ccccc2)CC1` [Compound C56, 4-(diphenylmethyl)piperazinyl 5-chloroindol-2-yl ketone], the IC50 is reported as less than 100 nM.
For `Cc1ccc2[nH]c(C(=O)N3CCN(S(=O)(=O)CCc4ccccc4)CC3)cc2c1` [Compound C57, 5-methylindol-2-yl 4-[(2-phenylethyl)sulfonyl]piperazinyl ketone], the IC50 was less than 100 nM.
Work on `Cc1ccc(C#CC(=O)N2CCN(C(c3ccccc3)c3ccccc3)CC2)cc1` [Compound C58, 1-[4-(diphenylmethyl)piperazinyl]-3-(4-methylphenyl)prop-2-yn-1-one] yielded an IC50 of less than 100 nM.
`COc1ccc(C(=O)N2CCN(C(=O)C#Cc3cccc(Cl)c3)CC2)cc1` [Compound C59, 3-(3-chlorophenyl)-1-{4-[(4-methoxyphenyl)carbonyl]piperazinyl}prop-2-yn-1-one] showed an IC50 of less than 100 nM.
In the case of `O=C(C#Cc1ccc(C(F)(F)F)cc1)N1CCN(C(=O)c2ccc(Cl)cc2)CC1` [Compound C60, 1-{4-[(4-chlorophenyl)carbonyl]piperazinyl}-3-[4-(trifluoromethyl)phenyl]prop-2-yn-1-one], the IC50 is reported as less than 100 nM.
Compound `O=C(C#Cc1ccc(Br)cc1)N1CCN(C(=O)c2ccc(Br)cc2)CC1` [Compound C61, 3-(4-bromophenyl)-1-{4-[(4-bromophenyl)carbonyl]piperazinyl}prop-2-yn-1-one] has an IC50 of less than 100 nM.
`COC(=O)c1ccc(C(=O)N2CCN(C(=O)c3cc4cc(Cl)ccc4[nH]3)CC2)cc1` [Compound C62, methyl 4-({4-[(5-chloroindol-2-yl)carbonyl]piperazinyl}carbonyl)benzoate] gave an IC50 of less than 100 nM.
In the case of `O=C(/C=C/c1ccc([N+](=O)[O-])cc1)N1CCN(C(c2ccccc2)c2ccccc2)CC1` [Compound C63, (2E)-1-[4-(diphenylmethyl)piperazinyl]-3-(4-nitrophenyl)prop-2-en-1-one], the IC50 is reported as less than 100 nM.
With `O=C(C#Cc1ccccc1)N1CCN(C(=O)c2ccc(Br)cc2)CC1` [Compound C65, 1-{4-[(4-bromophenyl)carbonyl]piperazinyl}-3-phenylprop-2-yn-1-one] the IC50 was less than 100 nM.
Work on `O=C(C#Cc1ccc(C(F)(F)F)cc1)N1CCN(C(c2ccccc2)c2ccccc2)CC1` [Compound C66, 1-[4-(diphenylmethyl)piperazinyl]-3-[4-(trifluoromethyl)phenyl]prop-2-yn-1-one] yielded an IC50 of less than 100 nM.
Work on `O=C(/C=C/c1ccc(F)cc1)N1CCN(C(c2ccccc2)c2ccccc2)CC1` [Compound C68, (2E)-1-[4-(diphenylmethyl)piperazinyl]-3-(4-fluorophenyl)prop-2-en-1-one] yielded an IC50 of less than 100 nM.
Compound `O=C(C#Cc1ccc(F)cc1)N1CCN(C(=O)c2ccc(Cl)cc2)CC1` [Compound C69, 1-{4-[(4-chlorophenyl)carbonyl]piperazinyl}-3-(4-fluorophenyl)prop-2-yn-1-one] has an IC50 of less than 100 nM.
With `O=C(C#Cc1ccc(Br)cc1)N1CCN(C(=O)c2ccc(F)cc2)CC1` [Compound C70, 3-(4-bromophenyl)-1-{4-[(4-fluorophenyl)carbonyl]piperazinyl}prop-2-yn-1-one] the IC50 was less than 100 nM.
Compound `O=C(c1cc2ccccc2[nH]1)N1CCN(C(c2ccccc2)c2ccccc2)CC1` [Compound C71, 4-(diphenylmethyl)piperazinyl indol-2-yl ketone] has an IC50 of less than 100 nM.
Work on `COc1cc(CN2CCN(C(=O)/C=C/c3ccc(Br)cc3)CC2)cc(OC)c1` [Compound C72, (2E)-1-{4-[(3,5-dimethoxyphenyl)methyl]piperazinyl}-3-(4-bromophenyl)prop-2-en-1-one] yielded an IC50 of less than 100 nM.
With `O=C(C#Cc1ccc(Cl)cc1)N1CCN(C(=O)c2ccc(C(F)(F)F)cc2)CC1` [Compound C73, 3-(4-chlorophenyl)-1-(4-{[4-(trifluoromethyl)phenyl]carbonyl}piperazinyl)prop-2-yn-1-one] the IC50 was less than 100 nM.
With `COc1ccc(C(=O)N2CCN(C(=O)C#Cc3ccc(F)cc3)CC2)cc1` [Compound C75, 3-(4-fluorophenyl)-1-{4-[(4-methoxyphenyl)carbonyl]piperazinyl}prop-2-yn-1-one] the IC50 was less than 100 nM.
`O=C(C#Cc1ccc(C(F)(F)F)cc1)N1CCN(C(=O)c2ccc(F)cc2)CC1` [Compound C76, 1-{4-[(4-fluorophenyl)carbonyl]piperazinyl}-3-[4-(trifluoromethyl)phenyl]prop-2-yn-1-one] showed an IC50 of less than 100 nM.
In the case of `CCC(C)C(=O)N1CCN(C(=O)/C=C/c2ccc(Br)cc2)CC1` (stereo not drawn) [Compound C78, (2E)-3-(4-bromophenyl)-1-[4-(2-methylbutanoyl)piperazinyl]prop-2-en-1-one], the IC50 is reported as less than 100 nM.
For `O=C(c1cc2cc(C(F)(F)F)ccc2[nH]1)N1CCN(C(c2ccccc2)c2ccccc2)CC1` [Compound C79, 4-(diphenylmethyl)piperazinyl 5-(trifluoromethyl)indol-2-yl ketone], the IC50 was less than 100 nM.
In the case of `COC(=O)c1ccc(C(=O)N2CCN(C(=O)c3cc4cc(Br)ccc4[nH]3)CC2)cc1` [Compound C81, methyl 4-({4-[(5-bromoindol-2-yl)carbonyl]piperazinyl}carbonyl)benzoate], the IC50 is reported as less than 100 nM.
`O=C(/C=C/c1ccc(Br)cc1)N1CCN(C(=O)C2CCCC2)CC1` [Compound C82, (2E)-3-(4-bromophenyl)-1-[4-(cyclopentylcarbonyl)piperazinyl]prop-2-en-1-one] was tested, and the IC50 was less than 100 nM.
With `O=C(C#Cc1ccc(C(F)(F)F)cc1)N1CCN(C(=O)c2ccc(C(F)(F)F)cc2)CC1` [Compound C84, 3-[4-(trifluoromethyl)phenyl]-1-(4-{[4-(trifluoromethyl)phenyl]carbonyl}piperazinyl)prop-2-yn-1-one] the IC50 was less than 100 nM.
With `O=C(c1cnc2cc(F)ccc2c1)N1CCN(C(c2ccccc2)c2ccccc2)CC1` [Compound C86, 4-(diphenylmethyl)piperazinyl 7-fluoro(3-quinolyl) ketone] the IC50 was less than 100 nM.
`O=C(c1cc2ccccc2o1)N1CCN(C(c2ccccc2)c2ccccc2)CC1` [Compound C87, benzo[d]furan-2-yl 4-(diphenylmethyl)piperazinyl ketone] was tested, and the IC50 was less than 100 nM.
In the case of `O=C(c1cc2cc(Cl)ccc2[nH]1)N1CCN(S(=O)(=O)CCc2ccccc2)CC1` [Compound C88, 5-chloroindol-2-yl 4-[(2-phenylethyl)sulfonyl]piperazinyl ketone], the IC50 is reported as less than 100 nM.
With `O=C(c1ccc(Cl)cc1)N1CCN(C(=O)c2cc3cc(Cl)ccc3[nH]2)CC1` [Compound C89, 5-chloroindol-2-yl 4-[(4-chlorophenyl)carbonyl]piperazinyl ketone] the IC50 was less than 100 nM.
`O=C(C#Cc1cccc(Cl)c1Cl)N1CCN(C(=O)c2ccc(F)cc2C(F)(F)F)CC1` [Compound C90, 3-(2,3-dichlorophenyl)-1-(4-{[4-fluoro-2-(trifluoromethyl)phenyl]carbonyl}piperazinyl)prop-2-yn-1-one] showed an IC50 of less than 100 nM.
